Measured values as given in ChEMBL document CHEMBL1201862, “PubChem BioAssay data set” (2004).
Where a name gives a salt, the structure may show the parent alone.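 96-well plates; 48 h exposure; 5 concentrations. Endpoints by linear interpolation between flanking doses. Not reached: highest tested concentration assigned. GI50 marks 50% less growth.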 Calls of active or inactive are those of the source. No stated cut-off is given here; in the data, active = GI50 up to about 1.1 µM and inactive = higher. Residues, ends and D or L forms follow the SMILES beside them. *: point of attachment. Tfa = O=C(C(F)(F)F)*

Columns and labels:
Test in all cases: NCI tumour cell line growth inhibition, 48 h
[1] = system: HCC 2998
[2] = system: SF-295
[3] = system: HOP-62
[4] = system: CAKI-1
[5] = system: UO-31
[6] = system: SK-OV-3
[7] = system: NCI-H226
[8] = system: SNB-75
[9] = system: Hs-578T
[10] = system: KM12
[11] = system: SK-MEL-28
[12] = system: SR
[13] = system: UACC-62
[14] = system: MDA-MB-231
[15] = system: SW-620
[16] = system: UACC-257
[17] = system: OVCAR-4
[18] = system: CCRF-CEM
[19] = system: LOX IMVI
[20] = system: A498

Measured: GI50

O=C(O)CC(NC(=O)C(F)(F)F)C(=O)NC(Cc1ccc(O)cc1)C(=O)O (stereo not drawn) (Tfa-Asp-Tyr-OH; configuration not given here)
inactive: [1] > 50 µM | [2] > 50 µM | [3] > 50 µM | [4] > 50 µM | [5] > 50 µM | [6] > 50 µM | [7] > 50 µM | [8] > 50 µM | [9] > 50 µM | [10] > 50 µM | [11] > 50 µM | [12] > 50 µM | [13] > 50 µM | [14] > 50 µM | [15] > 50 µM | [16] > 50 µM

NC(Cc1ccc2nc3c4ccccc4c(=O)cc-3oc2c1)C(=O)O (stereo not given)
inactive: [1] > 100 µM | [2] > 100 µM | [3] > 100 µM | [4] > 100 µM | [17] > 100 µM | [5] > 100 µM | [18] > 100 µM | [6] > 100 µM | [8] 65.8 µM | [9] 56.1 µM | [10] > 100 µM | [11] > 100 µM | [19] 45.8 µM | [12] > 100 µM | [13] 32.7 µM | [14] > 100 µM | [15] > 100 µM | [16] 72.1 µM

O=C1CS(=O)(=O)C(c2cccc(Oc3ccccc3)c2)N1c1cc(Cl)ccc1Cl (stereo not given)
inactive: [1] 18.8 µM | [2] 22.9 µM | [5] 20.1 µM | [18] 15.4 µM | [6] 24 µM | [7] 19.2 µM | [8] 14.6 µM | [9] 33.3 µM | [10] 17.8 µM | [11] 26.5 µM | [19] 14 µM | [12] 16.8 µM | [13] 15.5 µM | [14] 17.5 µM | [15] 34.4 µM | [16] 23.1 µM

O=C(c1ccc(O)c([N+](=O)[O-])c1)c1ccc(O)c([N+](=O)[O-])c1
inactive: [1] > 100 µM | [2] 46.3 µM | [3] > 100 µM | [20] > 100 µM | [4] > 100 µM | [17] > 100 µM | [5] 66.2 µM | [18] 31.9 µM | [6] > 100 µM | [7] > 100 µM | [8] 28.7 µM | [9] 46.3 µM | [10] 35.2 µM | [11] 47.2 µM | [19] > 100 µM | [13] 37.1 µM | [14] > 100 µM | [15] 55.6 µM | [16] 81.7 µM

CCOC(=O)CC[C@@H](NC(=O)c1ccc(NCc2ccc3nc(OC)c(OC)nc3c2)cc1)C(=O)OCC
inactive: [1] 33.6 µM | [2] 70.8 µM | [3] > 77.4 µM | [4] > 83.9 µM | [17] 38.9 µM | [5] 26.5 µM | [18] 32.6 µM | [6] > 100 µM | [7] 58.7 µM | [8] 14.5 µM | [9] > 29.9 µM | [10] > 100 µM | [11] 16.1 µM | [19] 38.9 µM | [12] 25.1 µM | [13] 15.5 µM | [14] 36.1 µM | [15] 80.7 µM | [16] 15.7 µM

COc1ccc(-c2oc3cc(OC)c(OC)c(OC)c3c(=O)c2OC)cc1OC [HEXAMETHOXYFLAVONE]
inactive: [1] > 100 µM | [2] > 100 µM | [3] > 100 µM | [20] > 100 µM | [4] > 100 µM | [17] > 100 µM | [5] 79.1 µM | [18] > 100 µM | [6] > 100 µM | [7] > 100 µM | [8] > 100 µM | [9] > 100 µM | [10] > 100 µM | [11] > 100 µM | [19] > 100 µM | [13] > 100 µM | [14] > 100 µM | [15] > 100 µM | [16] > 100 µM

CC(=O)c1c(C)[n+]([O-])c2cc(Cl)c(Cl)cc2[n+]1[O-]
inactive: [1] 21.6 µM | [2] 26.5 µM | [3] 23.1 µM | [20] 23.7 µM | [4] 18.7 µM | [17] 15.6 µM | [5] 14.9 µM | [18] 13.7 µM | [6] 19.4 µM | [9] 20.7 µM | [10] 10.3 µM | [11] 29.8 µM | [19] 16.8 µM | [12] 6.75 µM | [13] 18.4 µM | [14] 22.1 µM | [15] 17.7 µM | [16] 17.6 µM

CC(=O)Oc1ccc2c(c1OC(C)=O)CCC1C2=CC[C@]2(C)C(=O)CCC12 (stereo not given in full)
inactive: [2] 12.9 µM | [3] 19.7 µM | [4] 6.07 µM | [17] 3.36 µM | [5] 9.57 µM | [18] 3.37 µM | [6] 20.7 µM | [9] 19.6 µM | [10] 16 µM | [11] 9.12 µM | [12] 6.61 µM | [13] 12.3 µM | [14] 14.3 µM | [15] 3.18 µM | [16] 25.6 µM

C=C1C(=O)O[C@H]2C1C[C@H](O)/C(C)=C/CC[C@@]1(C)O[C@H]21 (stereo not given in full)
inactive: [1] 14.4 µM | [2] 31.5 µM | [3] 33.7 µM | [4] 14.5 µM | [17] 14.1 µM | [5] 14.8 µM | [18] 3.04 µM | [6] 36.5 µM | [8] 32.3 µM | [9] 23.6 µM | [10] 14.7 µM | [11] 23.8 µM | [19] 9.29 µM | [12] 6.04 µM | [13] 10.9 µM | [14] 18.9 µM | [15] 2.09 µM | [16] 16.7 µM

C[n+]1c2ccc(Cl)cc2nc2cc(-c3ccccc3)ccc21
inactive: [1] 4.95 µM | [2] 1.74 µM | [3] 23 µM | [4] 16.4 µM | [17] 18.5 µM | [5] 21.3 µM | [18] 60.7 µM | [7] 19.1 µM | [8] 24.7 µM | [9] 25.5 µM | [10] 4.65 µM | [11] 20.1 µM | [19] 5.69 µM | [12] 2.67 µM | [13] 18.4 µM | [14] 8.63 µM | [15] 4.7 µM | [16] 15.6 µM

CCn1cc(C(=O)O)c(=O)c2cc3c(cc21)S(=O)(=O)CC3
inactive: [1] > 100 µM | [2] > 100 µM | [3] > 100 µM | [20] > 100 µM | [4] > 100 µM | [17] > 100 µM | [5] > 100 µM | [18] > 100 µM | [6] > 100 µM | [7] > 100 µM | [8] > 100 µM | [9] > 100 µM | [10] > 100 µM | [11] > 100 µM | [19] > 100 µM | [13] > 100 µM | [14] > 100 µM | [15] > 100 µM | [16] > 100 µM
